Test results reported in paper PMC8763936 (Investigational New Drugs, 2021).
Several values for one entry are separate records, joined by “and”; a condition that tells them apart may be missing. Equal values may be shown once. Read-outs that look alike come from different tables or passages of the source.

Key:
CYP3A4/5 = assay: In vitro CYP inhibition (direct and time-dependent) in human liver microsomes; assay type: in vitro ADME
CYP2C8 = target: T1, CYP2C8 (Homo sapiens, UniProt P10632); assay: In vitro CYP inhibition in human liver microsomes; assay type: in vitro ADME; design: was investigated in human liver microsomes; from tissue; host or cells: pooled human liver microsomes; conditions: for IC50: human liver microsomes
T1 sequence (P10632 1-490): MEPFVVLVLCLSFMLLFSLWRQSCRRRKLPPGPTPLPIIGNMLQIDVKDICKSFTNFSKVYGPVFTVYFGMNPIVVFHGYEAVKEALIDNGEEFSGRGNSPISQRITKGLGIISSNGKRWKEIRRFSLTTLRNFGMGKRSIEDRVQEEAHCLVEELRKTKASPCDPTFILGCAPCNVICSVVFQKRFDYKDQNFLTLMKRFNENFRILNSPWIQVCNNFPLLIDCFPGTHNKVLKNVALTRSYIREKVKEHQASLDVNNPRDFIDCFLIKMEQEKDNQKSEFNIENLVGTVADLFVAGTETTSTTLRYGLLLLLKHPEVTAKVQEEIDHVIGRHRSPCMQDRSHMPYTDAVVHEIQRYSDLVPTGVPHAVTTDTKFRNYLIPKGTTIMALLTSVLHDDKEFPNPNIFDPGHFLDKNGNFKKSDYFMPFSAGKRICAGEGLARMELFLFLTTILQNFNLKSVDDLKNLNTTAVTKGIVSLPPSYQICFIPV

[1] = Study 1 Cohort 1: single dose entrectinib alone or with itraconazole, plasma pharmacokinetics; conditions: for M5/Entrectinib ratio, AUCinf / M5/Entrectinib ratio, Cmax: arithmetic mean (CV)
Experimental: All doses of study medication were administered at the study center.

CYP2B6 [2] = target: T2, CYP2B6 (Homo sapiens, UniProt P20813); assay: Metabolism by recombinantly expressed CYP enzymes
T2 sequence (P20813 1-491): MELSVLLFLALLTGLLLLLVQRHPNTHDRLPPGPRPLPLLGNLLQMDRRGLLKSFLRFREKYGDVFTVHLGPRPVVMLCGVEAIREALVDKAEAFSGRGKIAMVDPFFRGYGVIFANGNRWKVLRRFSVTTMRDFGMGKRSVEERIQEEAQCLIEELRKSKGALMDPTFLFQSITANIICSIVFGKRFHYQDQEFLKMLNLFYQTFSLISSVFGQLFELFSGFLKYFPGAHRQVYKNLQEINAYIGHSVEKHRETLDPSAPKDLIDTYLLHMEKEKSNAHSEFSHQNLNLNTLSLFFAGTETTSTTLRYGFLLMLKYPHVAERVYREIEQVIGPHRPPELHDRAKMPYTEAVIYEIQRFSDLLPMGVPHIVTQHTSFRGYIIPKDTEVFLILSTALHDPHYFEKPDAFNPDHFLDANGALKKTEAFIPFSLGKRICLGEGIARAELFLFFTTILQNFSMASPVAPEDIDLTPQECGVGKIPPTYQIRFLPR

CYP1A2 [3] = target: T3, CYP1A2 (Homo sapiens, UniProt P05177); assay: Metabolism by recombinantly expressed CYP enzymes
T3 sequence (P05177 1-516): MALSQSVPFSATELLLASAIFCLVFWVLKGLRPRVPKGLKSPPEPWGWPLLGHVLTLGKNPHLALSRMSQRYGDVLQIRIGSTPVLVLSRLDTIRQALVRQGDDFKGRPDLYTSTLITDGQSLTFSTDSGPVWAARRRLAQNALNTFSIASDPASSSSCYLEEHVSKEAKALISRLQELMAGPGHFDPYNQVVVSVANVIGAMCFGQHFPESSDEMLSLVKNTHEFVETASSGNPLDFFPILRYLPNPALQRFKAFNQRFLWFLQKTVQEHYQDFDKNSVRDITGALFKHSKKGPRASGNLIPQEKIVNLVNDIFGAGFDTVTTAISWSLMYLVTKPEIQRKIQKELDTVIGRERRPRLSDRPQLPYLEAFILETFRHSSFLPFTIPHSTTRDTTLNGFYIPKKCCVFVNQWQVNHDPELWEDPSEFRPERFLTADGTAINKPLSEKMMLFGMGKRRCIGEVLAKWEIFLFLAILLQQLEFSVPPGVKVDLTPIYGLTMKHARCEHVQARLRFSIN

CYP1A2 [4] = target: T3, CYP1A2; assay: In vitro CYP inhibition in human liver microsomes; assay type: in vitro ADME; design: purchased Corning-Gentest
CYP2C9 = CYP2C9 (Homo sapiens, UniProt P11712); assay: In vitro CYP inhibition in human liver microsomes; assay type: in vitro ADME; design: purchased Corning-Gentest
CYP2C9, sequence (P11712 whole entry): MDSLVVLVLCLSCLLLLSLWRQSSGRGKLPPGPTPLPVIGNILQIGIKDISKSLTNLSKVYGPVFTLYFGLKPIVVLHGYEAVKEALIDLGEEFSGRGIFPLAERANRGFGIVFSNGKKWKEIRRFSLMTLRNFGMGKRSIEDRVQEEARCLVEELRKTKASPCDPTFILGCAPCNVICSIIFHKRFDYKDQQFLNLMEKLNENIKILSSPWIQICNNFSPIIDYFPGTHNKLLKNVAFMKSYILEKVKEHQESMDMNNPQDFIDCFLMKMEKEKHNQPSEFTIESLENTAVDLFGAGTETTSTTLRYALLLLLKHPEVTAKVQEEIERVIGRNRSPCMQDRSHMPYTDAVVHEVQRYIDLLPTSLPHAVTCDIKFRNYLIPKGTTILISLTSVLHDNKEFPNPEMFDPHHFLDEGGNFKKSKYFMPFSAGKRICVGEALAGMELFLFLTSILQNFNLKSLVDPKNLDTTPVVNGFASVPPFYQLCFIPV

CYP2B6 [5] = target: T2, CYP2B6; assay: In vitro CYP inhibition in human liver microsomes; assay type: in vitro ADME; design: purchased Corning-Gentest
CYP3A4 [6] = target: CYP3A4 (Homo sapiens, UniProt P08684); assay: Metabolism by recombinantly expressed CYP enzymes; design: key to the marks not given beside the values
CYP3A4 (Homo sapiens, UniProt P08684), sequence (P08684 whole entry): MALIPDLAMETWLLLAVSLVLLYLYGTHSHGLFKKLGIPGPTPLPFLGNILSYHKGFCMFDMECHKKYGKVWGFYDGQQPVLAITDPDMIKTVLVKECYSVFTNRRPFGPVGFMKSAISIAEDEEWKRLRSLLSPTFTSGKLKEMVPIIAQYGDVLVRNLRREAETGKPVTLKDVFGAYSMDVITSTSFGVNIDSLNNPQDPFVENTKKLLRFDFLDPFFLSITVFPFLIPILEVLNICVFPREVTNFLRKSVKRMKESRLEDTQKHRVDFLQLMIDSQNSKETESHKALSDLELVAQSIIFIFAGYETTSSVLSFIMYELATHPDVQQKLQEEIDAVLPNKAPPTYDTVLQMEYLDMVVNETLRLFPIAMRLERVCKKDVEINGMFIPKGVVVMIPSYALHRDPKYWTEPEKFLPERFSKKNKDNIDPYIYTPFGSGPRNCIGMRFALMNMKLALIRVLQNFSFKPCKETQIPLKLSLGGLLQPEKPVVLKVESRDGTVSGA

CYP1A2 [7] = assay: Induction of CYP enzymes in human hepatocytes; conditions: for Relative Effectiveness ± SD Based on CYP Activity / Relative Effectiveness ± SD Based on CYP mRNA: percent of positive control
Experimental: (§1) In vitro induction of CYP mRNA (CYPs 1A2, 2C8, 2C9 and 3A4) or enzyme activity (CYPs 1A2, 2C19 and 3A4) was assessed in human hepatocytes.

CYP3A4 [8] = assay: Induction of CYP enzymes in human hepatocytes; conditions: for Relative Effectiveness ± SD Based on CYP Activity / Relative Effectiveness ± SD Based on CYP mRNA: percent of positive control
Experimental: as §1

[9] = Entrectinib 100 mg alone, geometric mean (geometric CV)
[10] = Entrectinib 100 mg with itraconazole 200 mg QD, geometric mean (geometric CV)
[11] = Entrectinib 100 mg with itraconazole

CN1CCN(c2ccc(C(=O)Nc3n[nH]c4ccc(Cc5cc(F)cc(F)c5)cc34)c(NC3CCOCC3)c2)CC1 [Entrectinib]
IC50 (CYP3A4/5; human, microsomes): 2000 nM | IC50 (CYP2C8): > 10 µM | t1/2 [1, 9]: 20.2 (17%) h | t1/2 [1, 10]: 49.8 (22%) h | increase of AUCinf ([1]; entrectinib coadministered with itraconazole vs alone): 504% | Tmax ([1]; human, in vivo): 5 h | AUC(0-inf) ([1]; human, in vivo, 100 mg): 6.19 µM·h | Cmax ([1]; human, in vivo, 100 mg): 358 nM | Tmax ([1]; human, in vivo, 100 mg): 2 h | half-life ([1]; human, in vivo, 100 mg, t1/2, Entrectinib 100 mg alone, geometric mean (geometric CV)): 1200 min | half-life ([1]; human, in vivo, t1/2, Entrectinib 100 mg with itraconazole 200 mg QD, geometric mean (geometric CV)): 3000 min | median Tmax later ([1]; with itraconazole vs entrectinib alone): approximately 3 h | Entrectinib Metabolism to M5 (CYP2B6 [2]): - | Entrectinib Metabolism to other Products (CYP2B6 [2]): - | Entrectinib Metabolism to M5 (CYP1A2 [3]): - | Entrectinib Metabolism to other Products (CYP1A2 [3]): - | IC50 (CYP1A2 [4]): > 10 µM | IC50 (CYP2C9): > 10 µM | IC50 (CYP2B6 [5]): > 10 µM | Entrectinib Metabolism to M5 (CYP3A4 [6]): +++ | Entrectinib Metabolism to other Products (CYP3A4 [6]): +++ | induction of CYP1A2 mRNA or enzyme activity (CYP1A2 [7]; human hepatocytes): did not significantly induce | CYP3A4 induction in vitro, in words (CYP3A4 [8]; in vitro): weak CYP3A4 inducer

O=C(Nc1n[nH]c2ccc(Cc3cc(F)cc(F)c3)cc12)c1ccc(N2CCNCC2)cc1NC1CCOCC1 [M5]
IC50 (CYP3A4/5; human liver microsomes, read-out: IC50): > 10000 nM | free Cmax lower than the CYP2C8 IC50 (CYP2C8; free Cmax 0.0134 μM vs IC50 about 4.9 μM): > 300 fold | IC50 (CYP2C8): ~4.9 µM and 4.9 µM | AUCinf ([1]; Entrectinib 100 mg alone, single dose, healthy subjects, fasted, geometric mean (geometric CV)): 1710 (30%) nM•h | M5/Entrectinib ratio, AUCinf ([1]; Entrectinib 100 mg alone): 0.288 (28%) | M5/Entrectinib ratio, Cmax ([1]; Entrectinib 100 mg alone): 0.151 (26%) | Cmax [1, 9]: 52.3 nM | t1/2 [1, 9]: 41 h and 40.8 (22%) h | Tmax ([1]; Entrectinib 100 mg alone, median (minimum, maximum)): 5.0 (3.0, 5.0) h | AUCinf [1, 10]: 4310 (30%) nM•h | Cmax [1, 10]: 31.5 nM | t1/2 [1, 10]: 88.0 (32%) h | Tmax ([1]; Entrectinib 100 mg with itraconazole 200 mg QD, median (minimum, maximum)): 6.0 (5.0, 48.0) h | M5/Entrectinib ratio, AUCinf [1, 11]: 0.124 (29%) | M5/Entrectinib ratio, Cmax [1, 11]: 0.0538 (34%) | increase in AUCinf ([1]; coadministration of itraconazole with entrectinib): approximately 2.5 fold | M5 exposure as share of entrectinib exposure (mean M5/entrectinib ratio for AUCinf) ([1]; entrectinib 100 mg alone): approximately 29% | M5 exposure as share of entrectinib exposure (mean M5/entrectinib ratio for AUCinf) ([1]; entrectinib 100 mg coadministered with itraconazole): 12% | M5 Metabolism (CYP2B6 [2]): - | M5 Metabolism (CYP1A2 [3]): - | IC50 (CYP1A2 [4]): > 10 µM | IC50 (CYP2C9): > 10 µM | IC50 (CYP2B6 [5]): > 10 µM | M5 Metabolism (CYP3A4 [6]): +++ | Relative Effectiveness ± SD Based on CYP Activity (CYP1A2 [7]; M5 0.5 µM): 0.575% ±0.657 | Relative Effectiveness ± SD Based on CYP mRNA (CYP1A2 [7]; M5 0.5 µM): 0.22% ±0.23 | Relative Effectiveness ± SD Based on CYP Activity (CYP1A2 [7]; M5 2.5 µM): 1.30% ±1.4 | Relative Effectiveness ± SD Based on CYP mRNA (CYP1A2 [7]; M5 2.5 µM): 1.22% ±0.87 | Relative Effectiveness ± SD Based on CYP Activity (CYP1A2 [7]; M5 10 µM): 0.445% ±0.27 | Relative Effectiveness ± SD Based on CYP mRNA (CYP1A2 [7]; M5 10 µM): 1.70% ±0.15 | Relative Effectiveness ± SD Based on CYP Activity (CYP3A4 [8]; M5 0.5 µM): 1.25% ±1.17 | Relative Effectiveness ± SD Based on CYP mRNA (CYP3A4 [8]; M5 0.5 µM): 1.16% ±1.47 | Relative Effectiveness ± SD Based on CYP Activity (CYP3A4 [8]; M5 2.5 µM): 4.61% ±3.06 | Relative Effectiveness ± SD Based on CYP mRNA (CYP3A4 [8]; M5 2.5 µM): 5.9% ±5.01 | Relative Effectiveness ± SD Based on CYP Activity (CYP3A4 [8]; M5 10 µM): 5.42% ±4.45 | Relative Effectiveness ± SD Based on CYP mRNA (CYP3A4 [8]; M5 10 µM): 16.5% ±11.2 | impact on the mRNA expression or activity of CYP3A4 (CYP3A4 [8]; human hepatocytes): no significant impact
